Laboratory results from article PMC10123104 (Nucleic Acids Research, 2023).
No end group written: not given here.

Target: YbiB (Escherichia coli, UniProt P30177)
Assay: biochemical
Type: binding

Sequence of YbiB (P30177 whole entry): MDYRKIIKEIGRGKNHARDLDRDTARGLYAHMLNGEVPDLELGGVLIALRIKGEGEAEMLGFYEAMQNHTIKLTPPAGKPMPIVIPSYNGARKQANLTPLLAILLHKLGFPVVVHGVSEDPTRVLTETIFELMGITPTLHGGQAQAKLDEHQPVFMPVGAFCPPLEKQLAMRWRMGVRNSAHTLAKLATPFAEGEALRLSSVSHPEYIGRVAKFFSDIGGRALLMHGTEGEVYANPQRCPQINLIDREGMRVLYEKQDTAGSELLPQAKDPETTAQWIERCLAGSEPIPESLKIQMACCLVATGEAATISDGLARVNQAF

| Compound | Kd [µM] | stoichiometry n (ITC, Figure 3C isotherm, single binding event) |
| --- | --- | --- |
| LEEIAEEDDEDADDDADEDD [peptide4-AA] | ~10 |  |
| CC[C@H](C)[C@H](NC(=O)[C@H](Cc1ccccc1)NC(=O)[C@H](CCC(=O)O)NC(=O)[C@@H](NC(=O)CNC(=O)[C@H](CCC(=O)O)NC(=O)[C@H](CCC(=O)O)NC(=O)[C@H](CC(=O)O)NC(=O)[C@H](CC(=O)O)NC(=O)[C@H](CCC(=O)O)NC(=O)[C@H](CC(=O)O)NC(=O)[C@H](Cc1c[nH]c2ccccc12)NC(=O)[C@H](CC(=O)O)NC(=O)[C@H](CC(=O)O)NC(=O)[C@H](CC(=O)O)NC(=O)[C@H](Cc1c[nH]c2ccccc12)NC(=O)[C@@H](N)CC(=O)O)C(C)C)C(=O)N[C@@H](Cc1ccc(O)cc1)C(=O)N[C@@H](CCCCN)C(=O)N[C@@H](CCCNC(=N)N)C(=O)O [peptide5] |  | 0.937 ± 0.008 |
